Test results reported in the supplement of paper PMC11208160.

Experiment: recombinant barcode read abundance after kanamycin selection (control-corrected) (log10(CPM+1)); higher = more efficient recombination; sequences stand for … in AGTGCAGAGAAAATCGGCCAGTTTTCTCTGCCTGCAGTCCGCATGCCGT…ATTTATGCAGCGGACTGCCTTTCTCCCAAAGTGATAAACCGGACAGTATCATGGACCGGTTTTCCCGGTAATCCGTATTTGCAAGGTTGGTTTCACT; site = the 11-nt target
Summary of the method: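 For this pooled screen, each oligo contained a promoter, a target, a barcode and the J23119-driven first 104 bases of the bridge RNA. Gibson cloning placed it into a vector supplying the remaining 73 bp and a T7-inducible recombinase, and the pool was co-electroporated into E. coli with a donor plasmid. Recombination efficiency is derived from barcode counts per million at recombinant junctions after averaging and control correction, and is expressed on a log scale as log10(CPM+1), with selection on chloramphenicol/ampicillin/kanamycin plus 0.1 mM IPTG against a chloramphenicol/ampicillin LB agar control.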

| Sequence | recombinant barcode read abundance (log10) |
| --- | --- |
| TGTATTCACTGGGTTCTAACCTGTTGCCTGT [TGTATTCCTAG_LTGcore_AC_RTGcore_AC] (site TGTATTCCTAG) (LTG core: AC, RTG core: AC) | 0.251 |
| GGGCGTGAGTGGGTTCTAACCTGTTGCCTCT [GGGCGTGCTAG_LTGcore_AG_RTGcore_AG] (site GGGCGTGCTAG) (LTG core: AG, RTG core: AG) | 0.523 |
| TTATAAACCTGGGTTCTAACCTGTTGCCTAG [TTATAAACTAG_LTGcore_CC_RTGcore_CT] (site TTATAAACTAG) (LTG core: CC, RTG core: CT) | 0.437 |
| GAGGCCTTATGGGTTCTAACCTGTTGCCATA [GAGGCCTCTTG_LTGcore_TA_RTGcore_TA] (site GAGGCCTCTTG) (LTG core: TA, RTG core: TA) | 0.172 |
| GGGAGCCAGTGGGTTCTAACCTGTTGCTGAG [GGGAGCCCTCA_LTGcore_AG_RTGcore_CT] (site GGGAGCCCTCA) (LTG core: AG, RTG core: CT) | 0.493 |
| CGGTCCCCTTGGGTTCTAACCTGTTGCCAAG [CGGTCCCCTTG_LTGcore_CT_RTGcore_CT] (site CGGTCCCCTTG) (LTG core: CT, RTG core: CT) | 1.32 |
| TCGCGACAATGGGTTCTAACCTGTTGCCGAG [TCGCGACCTCG_LTGcore_AA_RTGcore_CT] (site TCGCGACCTCG) (LTG core: AA, RTG core: CT) | 0.0505 |
| GAGCCCACGTGGGTTCTAACCTGTTGCCTAG [GAGCCCACTAG_LTGcore_CG_RTGcore_CT] (site GAGCCCACTAG) (LTG core: CG, RTG core: CT) | 0.2 |
| GAGTCCACTTGGGTTCTAACCTGTTGCGTTT [GAGTCCACTAC_LTGcore_CT_RTGcore_AA] (site GAGTCCACTAC) (LTG core: CT, RTG core: AA) | 1.07 |
| CGGTCCCCTTGGGTTCTAACCTGTTGCCATT [CGGTCCCCTTG_LTGcore_CT_RTGcore_AA] (site CGGTCCCCTTG) (LTG core: CT, RTG core: AA) | 0.369 |
| GAGTCCTCGTGGGTTCTAACCTGTTGCCTAG [GAGTCCTCTAG_LTGcore_CG_RTGcore_CT] (site GAGTCCTCTAG) (LTG core: CG, RTG core: CT) | 0.274 |
| AGGAGGTCATGGGTTCTAACCTGTTGCCTTG [AGGAGGTCTAG_LTGcore_CA_RTGcore_CA] (site AGGAGGTCTAG) (LTG core: CA, RTG core: CA) | 0 |
| GGGCGGATGTGGGTTCTAACCTGTTGCGGCA [GGGCGGACTCC_LTGcore_TG_RTGcore_TG] (site GGGCGGACTCC) (LTG core: TG, RTG core: TG) | 0.182 |
| AGTCTTAATTGGGTTCTAACCTGTTGCCAAG [AGTCTTACTTG_LTGcore_AT_RTGcore_CT] (site AGTCTTACTTG) (LTG core: AT, RTG core: CT) | 0.295 |
| ACGGGACTATGGGTTCTAACCTGTTGCAGAG [ACGGGACCTCT_LTGcore_TA_RTGcore_CT] (site ACGGGACCTCT) (LTG core: TA, RTG core: CT) | 0.0145 |
| GAGTCCTCTTGGGTTCTAACCTGTTGCCTGC [GAGTCCTCTAG_LTGcore_CT_RTGcore_GC] (site GAGTCCTCTAG) (LTG core: CT, RTG core: GC) | 0.293 |
| CGGTCCCCTTGGGTTCTAACCTGTTGCCACG [CGGTCCCCTTG_LTGcore_CT_RTGcore_CG] (site CGGTCCCCTTG) (LTG core: CT, RTG core: CG) | 0.0795 |

| Sequence | recombinant barcode read abundance (log10) |
| --- | --- |
| AAACACAAGTGGGTTCTAACCTGTTGCCTCT [AAACACACTAG_LTGcore_AG_RTGcore_AG] (site AAACACACTAG) (LTG core: AG, RTG core: AG) | 0.196 |
| TCTACCCCGTGGGTTCTAACCTGTTGCTGAG [TCTACCCCTCA_LTGcore_CG_RTGcore_CT] (site TCTACCCCTCA) (LTG core: CG, RTG core: CT) | 0.0746 |
| CGGTCCCCATGGGTTCTAACCTGTTGCCATG [CGGTCCCCTTG_LTGcore_CA_RTGcore_CA] (site CGGTCCCCTTG) (LTG core: CA, RTG core: CA) | 0.185 |
| GCGCGACGGTGGGTTCTAACCTGTTGCTTCC [GCGCGACCTAA_LTGcore_GG_RTGcore_GG] (site GCGCGACCTAA) (LTG core: GG, RTG core: GG) | 0.315 |
| ATGTCCCCTTGGGTTCTAACCTGTTGCTCTC [ATGTCCCCTGA_LTGcore_CT_RTGcore_GA] (site ATGTCCCCTGA) (LTG core: CT, RTG core: GA) | 0.0163 |
| CGCGCCCGCTGGGTTCTAACCTGTTGCGGGC [CGCGCCCCTCC_LTGcore_GC_RTGcore_GC] (site CGCGCCCCTCC) (LTG core: GC, RTG core: GC) | 0.552 |
| TCTACCCCGTGGGTTCTAACCTGTTGCTGCG [TCTACCCCTCA_LTGcore_CG_RTGcore_CG] (site TCTACCCCTCA) (LTG core: CG, RTG core: CG) | 0.0225 |
| AAACATGCTTGGGTTCTAACCTGTTGCCTGC [AAACATGCTAG_LTGcore_CT_RTGcore_GC] (site AAACATGCTAG) (LTG core: CT, RTG core: GC) | 0.756 |
| GCGGGACGGTGGGTTCTAACCTGTTGCCTAG [GCGGGACCTAG_LTGcore_GG_RTGcore_CT] (site GCGGGACCTAG) (LTG core: GG, RTG core: CT) | 0.14 |
| ATGCTTTCTTGGGTTCTAACCTGTTGCCTGT [ATGCTTTCTAG_LTGcore_CT_RTGcore_AC] (site ATGCTTTCTAG) (LTG core: CT, RTG core: AC) | 0.101 |
| TGATACCCTTGGGTTCTAACCTGTTGCGTCC [TGATACCCTAC_LTGcore_CT_RTGcore_GG] (site TGATACCCTAC) (LTG core: CT, RTG core: GG) | 0.629 |
| CGAGCCCGCTGGGTTCTAACCTGTTGCTGAG [CGAGCCCCTCA_LTGcore_GC_RTGcore_CT] (site CGAGCCCCTCA) (LTG core: GC, RTG core: CT) | 0.195 |
| CGAGCCCACTGGGTTCTAACCTGTTGCTGGT [CGAGCCCCTCA_LTGcore_AC_RTGcore_AC] (site CGAGCCCCTCA) (LTG core: AC, RTG core: AC) | 0.0238 |
| AAACATGTGTGGGTTCTAACCTGTTGCCTCA [AAACATGCTAG_LTGcore_TG_RTGcore_TG] (site AAACATGCTAG) (LTG core: TG, RTG core: TG) | 0.015 |
| CGGTCCCCTTGGGTTCTAACCTGTTGCCAAA [CGGTCCCCTTG_LTGcore_CT_RTGcore_TT] (site CGGTCCCCTTG) (LTG core: CT, RTG core: TT) | 0.0341 |
| CGCGCCCACTGGGTTCTAACCTGTTGCGGGT [CGCGCCCCTCC_LTGcore_AC_RTGcore_AC] (site CGCGCCCCTCC) (LTG core: AC, RTG core: AC) | 0.0786 |
| GGGCGTGACTGGGTTCTAACCTGTTGCCTAG [GGGCGTGCTAG_LTGcore_AC_RTGcore_CT] (site GGGCGTGCTAG) (LTG core: AC, RTG core: CT) | 0.437 |
